Assays:
OVA-induced asthma = OVA-induced asthma mouse model: lung histopathology score and mucus index (alcian blue-PAS sections); format: in vivo, C57BL/6 mice; details: summary statement; for effect on lung pathology: fed individually
Procedure: (§1) Eight to nine week old male and female C57BL/6 mice (University of Auckland, New Zealand) were kept on an ovalbumin (OVA)-free normal mouse chow diet from weaning up until they were assigned to a particular diet (control or experimental diet). Each diet group (n=6) contained an equal number of male and female mice. Throughout the study period mice were kept in an air-conditioned room with controlled humidity, temperature, and a 12h light:dark cycle.
(§2) Healthy control mice were maintained on an unmodified AIN-93G diet. Soybean oil (which contains no CLA) was the dietary fat source in the AIN-93G diet. The final fat content of all treatment diets used in the Examples was maintained at the same level as the fat content of the control AIN-93G diet by reducing the soybean oil content of the treatment or control diets as required. Fresh diet was provided biweekly, and mice had free access to food and water throughout the study.

IL-5 = IL-5 in BAL fluid by ELISA after allergen challenge; format: in vivo, C57BL/6 mice; details: vs AIN-93G control
Description: The levels of IL-5 and eotaxin in the BAL fluid were quantitated by ELISA using a Quantikine mouse IL-5 ELISA kit and a mouse eotaxin Quantikine ELISA kit (R&D Systems, MN), respectively, according to the manufacturers' instructions. The detection limits were 3 pg/ml for eotaxin and 7 pg/ml for IL-5.
IL-5 and eotaxin produced by a variety of different cell types in the sensitized lung play key roles in asthma by controlling the development and release of eosinophils from the bone marrow, and their accumulation, activation and survival in the lung (Walsh et al., 2005; Shinagawa et al., 2003). Challenge with allergen led to marked increases in the levels of IL-5 and eotaxin (data not shown) in the BAL fluid of control mice fed the AIN93G diet (FIG. 3).

[1] = Blood triglyceride levels (Accutrend GCT meter); details: diet with 0.21% VA; P<0.05; data not shown
[2] = mice, two week feeding period; cited from earlier work
[3] = system: allergen-induced accumulation of leukocytes into the lung; assay: OVA-induced asthma mouse model: bronchoalveolar lavage (BAL) total and differential cell counts; format: in vivo, C57BL/6 mice; details: for increase of total BAL cell counts vs control diet: single-supplement diets (0.14% cis-9, trans-11 CLA or 0.21% VA), BAL 6 days after intranasal OVA challenge, vs AIN93G control; for increase of accumulation of eosinophils in BAL vs control diet: single-supplement diets, BAL 6 days after OVA challenge, not significant; for effect on leukocyte infiltration into the airway lumen: summary statement
Procedure: as §1, §2
Bronchoalveolar lavage was performed immediately after euthanasia by flushing 1 ml of PBS containing 1% heat inactivated fetal calf serum (lavage buffer) thrice through the lung and airways of mice via the cannulated trachea. The recovered BAL was pooled for each animal, centrifuged at 1,500 rpm at 4° C., and the supernatant stored at −80° C. The cell pellets were resuspended in 1 ml of lavage buffer, and total cell numbers were counted using a hemocytometer. BAL cells were centrifuged onto poly-L-lysine-coated glass slides using a cytospin, and stained with Diff-Quik stain (Dade Behring Inc. USA). Differential cellular counts were made by counting ≧300 cells under light microscopy (Nikon E200 microscope), using standard morphological criteria.
Data are expressed as the mean±SEM, and statistical significance was determined by the Student's t test. A value of P<0.05 was taken as significant.

[4] = humans; cited from earlier work

increase of blood triglyceride levels [1] [%]	SMILES	effect on lung pathology (OVA-induced asthma)	reduction of IL-5 in BAL fluid vs control diet (IL-5) [%]	VA consumed retained as cis-9, trans-11 CLA in its triglyceride form [2] [%]	increase of total BAL cell counts vs control diet [3] [%]	increase of accumulation of eosinophils in BAL vs control diet [3] [%]	effect on leukocyte infiltration into the airway lumen [3]	average conversion rate of VA to cis-9, trans-11 CLA [4] [%]	inhibition of mucus hypersecretion (significance) (OVA-induced asthma)	increase in monocytes/macrophages in BAL vs control diet ([3]; 0.14% cis-9, trans-11 CLA diet, P=0.05) [%]
59	CCCCCC/C=C/CCCCCCCCCC(=O)O [VA, trans 11-octadecenoic acid]	no significant effect	11	~12	94	270	increased	~19	–	–
–	CCCCCC/C=C/C=C\CCCCCCCC(=O)O [cis-9, trans-11 CLA, cis-9, trans-11 conjugated linoleic acid]	no significant effect	21	–	43	69	increased	–	significance was not achieved	35

— patent US20090048339A1, “COMPOSITIONS OF CIS-9, TRANS-11 CONJUGATED LINOLEIC ACID AND VACCENIC ACID AND USES THEREOF” (FONTERRA CORPORATE RESEARCH AND DEVELOPMENT LIMITE, priority 2005, published 2009)
